Columns and labels:
β-glucuronidase [1] = target: β-glucuronidase (Escherichia coli, UniProt P05804); test: Specificity study: hydrolysis of probes by the enzyme; assay type: biochemical
Description: (§1) The detection performances of this compound in the presence of ethanol and ethanol-D5 were then verified. […] The detection ranges of ethanol-D5 and ethanol-^13C-D5 were then carried out under SPME sampling conditions developed for biological samples (30 min of sampling at 30° C.). The two isotopes were present in mixtures in solution. The limits of detection obtained are respectively […]. The SPME-GC-TQMS method therefore allows a sharp differentiation of the two isotopes according to their mass fragmentation. An experimental study was then carried out in order to evaluate the affinity of the D5-ethyl-β-D-glucuronide and ^13C-D5-ethyl-N-acetylglucosamine for their respective enzyme (β-glucuronidase and N-acetyl glucosaminidase). For this, the efficacy of hydrolysis of each of these enzymes was studied in the presence of their respective probe (FIG. 6) then in the presence of the substrate probe of its partner (FIG. 7). […] In the presence of the two substrates, each enzyme gives a signal only for the probe specific to it (FIG. 8).

N-acetyl glucosaminidase = test: as above; assay type: biochemical
Description: as §1

N-acetyl-glucosaminidase = test: Plasma protocol: labeled ethanol released in headspace of plasma after adding probe; assay type: biochemical, human
Description: (§2) The plasma (approximately […]) is extracted and stored at −20° C. until analysis. An aliquot of 25 μL of plasma is sampled and inserted into a […] with an insert. This biological sample is added to 50 μL of acetate buffer solution (pH 5), protease inhibitor (1×) and 25 μL probe D5-ethyl-β-D-glucuronide at […]. After hermetic closure and agitation to the vortex of the vial, an SPME (SPME in semi-polar phase of the Car/PDMS, 1 cm long and 75 μm thick type with a 24 ga needle; Supelco) of the gas phase above the sample of a duration of 30 mi is carried out after 2 h, 4 h and 7 h of reaction. Each kinetic point requires a vial reaction, and is carried out in duplicate. The VOCs trapped on the SPME fiber are then analyzed by G-TQMS. GC-TMS detection of the ethanol isotopes (thus including ethanol-D5) is carried out with gas chromatography coupled to a triple quadrupole equipped with an E1 source (TSQ 9000, Thermo Fisher Scientific). The system is controlled by the software TSQ 9000 and the results are analyzed with the Xcalibur software (Thermo Fisher Scientific).
(§3) In order to verify the diagnostic efficacy of this cocktail, it was tested on samples of plasma taken from 4 patients suffering from breast cancer and 3 patients with lung cancer. These patients were diagnosed, but had at the time of sampling not yet received treatment suited to their pathological condition.
(§4) After adding the 4 probes (according to the above protocol), the quantity of the 4 isotopes of the ethanol released above the samples of the patients was measured over time. The responses of each isotope were compared with those obtained when the cocktail was added to plasmas of 4 healthy patients. An experimental blank was also carried out each day of analysis. These blanks correspond to negative controls wherein the cocktail was added, whereas none of the 4 enzymes was present therein (FIG. 9).
(§5) According to the plasma protocol described above, the probes were used to detect the six enzymatic activities in these samples. To summarize, an aliquot of 25 μL of plasma will be sampled and inserted into a 2 mL vial with an insert. This biological sample was added from 61.4 μL buffer solution (pH 5), 3.6 μL of protease inhibitor (1×) and 10 μL of one or the other of the cocktails. After hermetic closure and agitation to the vortex of the vial, an SPME (SPME in semi-polar phase of the Car/PDMS, 1 cm long and 75 μm thick type with a 24 ga needle, Supelco) of the gas phase above the sample of a duration of 30 min will be carried out after 2 h, 4 h and 7 h of reaction. Each kinetic point requires a vial reaction, and was carried out in duplicate. The VOCs trapped on the SPME fiber are then analyzed by GC-TQMS according to the parameters defined in Tables 4 and 5. […]

α-L-fucosidase = test: as above; assay type: biochemical, human
Description: as §2, §3, §4, §5

β-glucuronidase [2] = target: T1, β-glucuronidase (Homo sapiens, UniProt P08236); test: as above; assay type: biochemical; settings: Ethanol-D5; Cocktail 1; 5·10^−4/5·10^−5 mol·L^−1; Splitless
T1 construct: from tissue; host or cells: human blood plasma
T1 sequence (P08236 23-651): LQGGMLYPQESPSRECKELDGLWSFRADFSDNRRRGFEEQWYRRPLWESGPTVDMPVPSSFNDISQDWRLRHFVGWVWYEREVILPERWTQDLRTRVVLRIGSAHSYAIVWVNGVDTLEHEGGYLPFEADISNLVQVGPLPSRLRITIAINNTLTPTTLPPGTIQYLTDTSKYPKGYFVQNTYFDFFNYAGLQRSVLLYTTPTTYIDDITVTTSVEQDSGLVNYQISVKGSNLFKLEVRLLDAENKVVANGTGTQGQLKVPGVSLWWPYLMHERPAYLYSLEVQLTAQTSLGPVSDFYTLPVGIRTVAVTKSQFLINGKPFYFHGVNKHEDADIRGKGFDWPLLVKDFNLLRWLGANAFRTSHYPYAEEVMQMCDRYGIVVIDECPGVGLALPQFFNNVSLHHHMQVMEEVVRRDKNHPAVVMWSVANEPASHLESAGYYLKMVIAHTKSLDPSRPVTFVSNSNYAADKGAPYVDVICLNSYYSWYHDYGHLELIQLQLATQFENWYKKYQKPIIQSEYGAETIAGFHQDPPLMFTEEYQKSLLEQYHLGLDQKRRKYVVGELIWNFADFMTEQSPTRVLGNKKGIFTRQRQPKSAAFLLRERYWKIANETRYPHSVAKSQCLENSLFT
Description: as §2
Blood samples were taken by the caregiver associated with the oncological service, then collected and pretreated with the CIC. This study included samples of plasma taken from 11 patients suffering from breast cancer and 11 patients suffering from lung cancer.
These patients were diagnosed, but had at the time of sampling not yet received treatment. Their response was compared to that obtained from the plasma of 4 healthy patients. The results were compared to an experimental blank wherein the probe was added, but the enzyme was not present (FIG. 3). […]
After adding the 4 probes (according to the above protocol), the quantity of the 4 isotopes of the ethanol released above the samples of the patients was measured over time. […]
(§6) According to the plasma protocol described above, the probes were used to detect the six enzymatic activities in these samples. […] The VOCs trapped on the SPME fiber are then analyzed by GC-TQMS according to the parameters defined in Tables 4 and 5. […]

[3] = test system: KB tumors (tumor xenograft, tumor cells of the nasopharynx KB); test: In vivo test of cocktail of 4 probes: ethanol isotopes exhaled after i.v. injection; design: species or system mouse; settings: 15 days after implantation; 1 h after i.v. injection
Description: In the context of this study, the quantity of 4 expired isotopes by mouse models carrying a tumor xenograft (tumor cells of the nasopharynx KB; n=6) was compared to that exhaled by healthy animals (n=6) after i.v. injection of the cocktail.
The concentration of the 4 probes to be injected was determined beforehand according to a precise experimental plan having the objective of determining the amount of each probe inducing a minimum ethanol response in healthy animals (signal reaching a low or even zero basal level). In this context, the healthy animals received increasing doses of the 4 probes ([…] at 100 μg·kg^−1). The animals were then placed in a hermetic cage for 1 h. The amount of each ethanol isotope present in the breath of the animals was then measured for 30 min via an SPME sample, then a GC-TQMS analysis.
Once the i.v. doses are set, the cocktail was injected into healthy mice and diseased mice after 12 and then 15 days of implantation of the xenograft. The amount of the ethanol isotopes exhaled by the animals was measured 1 h after injection of the cocktail (FIG. 10). A negative control on two mice (healthy and diseased) was carried out. This control consisted of measuring the quantity of 4 isotopes of ethanol in the air surrounding the mice which had not received the cocktail. Ethanol-D5, ethanol-D4 and ethanol-^13CD5 were not detected. […]

β-D-galactosidase = target: T2, β-D-galactosidase (Homo sapiens, UniProt P16278); test: Plasma protocol: labeled ethanol released in headspace of plasma after adding probe; assay type: biochemical; settings: for discernment between healthy patients and cancer patients: cocktail of 4 probes, plasma of breast and lung cancer patients vs 4 healthy
T2 construct: from tissue; host or cells: human blood plasma
T2 sequence (P16278 29-677): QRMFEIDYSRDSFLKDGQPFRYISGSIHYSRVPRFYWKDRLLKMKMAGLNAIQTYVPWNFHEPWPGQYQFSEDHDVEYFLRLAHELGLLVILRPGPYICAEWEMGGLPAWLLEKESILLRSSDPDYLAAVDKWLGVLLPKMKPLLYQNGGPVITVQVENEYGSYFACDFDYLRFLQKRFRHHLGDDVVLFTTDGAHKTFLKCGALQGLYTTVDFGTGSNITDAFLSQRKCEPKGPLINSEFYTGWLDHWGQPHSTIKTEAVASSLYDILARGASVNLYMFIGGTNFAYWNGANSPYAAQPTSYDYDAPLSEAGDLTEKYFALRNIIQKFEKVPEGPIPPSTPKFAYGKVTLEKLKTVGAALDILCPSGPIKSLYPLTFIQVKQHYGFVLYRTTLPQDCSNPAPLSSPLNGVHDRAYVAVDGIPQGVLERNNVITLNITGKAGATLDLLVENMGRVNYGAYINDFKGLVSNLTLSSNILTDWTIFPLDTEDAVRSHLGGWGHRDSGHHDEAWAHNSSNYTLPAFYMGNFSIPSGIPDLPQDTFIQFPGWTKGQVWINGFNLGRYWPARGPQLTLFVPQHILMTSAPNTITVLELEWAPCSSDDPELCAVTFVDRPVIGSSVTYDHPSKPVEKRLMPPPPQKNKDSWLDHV
Description: as §2, §3
as §4, with “These blanks correspond to negative controls wherein the cocktail was added, whereas none of the 4 enzymes was present therein (FIG. 9).” left out
as §6

β-glucuronidase [4] = target: T1, β-glucuronidase; test: Reference method: hydrolysis of para-nitrophenol glucuronide, UV detection at 400 nm, on patient plasma; assay type: biochemical; settings: plasma of cancer and healthy patients
Excerpt: The limit of detection of the enzyme with the probe is between […] (signal to noise 9) and […] (signal to noise 37), which leads to a minimum quantity of detectable enzyme equal to 1.10^−18 mol. This LOD is 100 times lower than the threshold value obtained according to the reference detection method of this same enzyme (Li et al., 2018, Biotechnology Letters, 40, 11 1-118; Xiao et al., 2020, RSC Advances, 10, 22966). This method corresponds to the hydrolysis of para-nitrophenol glucuronide. It was carried out in acetate buffer […], followed by UV detection at 400 nm of the para-nitrophenol (FIG. 2).
Finally, these same plasma samples were tested with the reference method targeting […] (UV detection in the presence of para-nitrophenol; protocol described page 5).

Chain of β-glucuronidase (Escherichia coli, UniProt P05804) (P05804 whole entry, the tested form may be a part): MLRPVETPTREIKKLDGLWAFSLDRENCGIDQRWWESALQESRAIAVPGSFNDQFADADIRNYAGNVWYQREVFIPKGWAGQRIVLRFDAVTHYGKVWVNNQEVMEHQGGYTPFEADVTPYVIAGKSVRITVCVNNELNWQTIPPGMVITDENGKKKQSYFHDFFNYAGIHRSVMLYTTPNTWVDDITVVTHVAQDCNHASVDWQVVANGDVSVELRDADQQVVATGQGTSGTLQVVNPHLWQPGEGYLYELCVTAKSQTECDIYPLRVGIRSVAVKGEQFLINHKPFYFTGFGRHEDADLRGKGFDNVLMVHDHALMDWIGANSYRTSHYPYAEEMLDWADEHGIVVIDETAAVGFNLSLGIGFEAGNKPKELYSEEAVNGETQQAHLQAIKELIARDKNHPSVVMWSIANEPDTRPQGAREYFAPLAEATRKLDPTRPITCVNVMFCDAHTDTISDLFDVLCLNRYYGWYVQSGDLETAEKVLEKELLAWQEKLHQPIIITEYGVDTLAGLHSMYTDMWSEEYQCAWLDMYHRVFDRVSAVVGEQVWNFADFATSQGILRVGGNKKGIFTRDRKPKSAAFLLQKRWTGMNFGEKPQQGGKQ

Compound: ^13C-D5-ethyl-N-acetylglucosamide [^13C-D5-ethyl-N-acetylglucosamine]
- hydrolysis of probe by β-glucuronidase (labeled ethanol signal) (β-glucuronidase [1]): does not hydrolysis
- hydrolysis of probe by N-acetyl glucosaminidase (labeled ethanol signal) (N-acetyl glucosaminidase): has hydrolyzed its own probe
- discernment between healthy patients and cancer patients (N-acetyl-glucosaminidase; cocktail of 4 probes, plasma of breast and lung cancer patients vs 4 healthy): allow clear discernment between healthy patients and cancer patients

Compound: C=C(C)C[C@@H]1[C@@H](CCC)C[C@H](CC)[C@@H](C)[C@@H]1C
- Plasma response range (u.a.) (N-acetyl-glucosaminidase; Ethanol-13CD5, Cocktail 2, 10^−3/10^−4 mol·L^−1, Split 1:15): 10000-300000 u.a.

Compound: [2H]C(O[C@@H]1O[C@@H](C)[C@@H](O)[C@@H](O)[C@@H]1O)C([2H])([2H])[2H] (stereo partly drawn) [D4-ethyl-1-α-L-fucopyranoside]
- discernment between healthy patients and cancer patients (α-L-fucosidase; cocktail of 4 probes, plasma of breast and lung cancer patients vs healthy): allow clear discernment between healthy patients and cancer patients

Compound: CCC[C@@H]1C[C@H](C(C)C)[C@@H](C)[C@H](C)[C@H]1C
- Plasma response range (u.a.) (β-glucuronidase [2]): 1000-35000 u.a.

Compound: CCC[C@@H]1C[C@H](C)[C@@H](C)[C@@H](C)[C@@H]1C
- Plasma response range (u.a.) (α-L-fucosidase; Ethanol-D4, Cocktail 3, 10^−3/10^−4 mol·L^−1, Splitless): 5000-230000 u.a.

Compound: [2H]C([2H])(C)O[C@@H]1O[C@H](CO)[C@H](O)[C@H](O)[C@H]1O [D2-ethyl-β-D-galactopyranoside]
- activation of probe in the microenvironment of KB (nasopharyngeal) tumors, release of ethanol isotope in exhaled air [3]: activated
- discernment between healthy patients and cancer patients (β-D-galactosidase): does not make it possible to discern healthy patients from cancer patients
- discernment between healthy patients and cancer patients (β-D-galactosidase; listed as D2-ethyl-β-d-galactopyranoside): does not make it possible to differentiate healthy patients from breast cancer or lung cancer patients

Compound: O=C(O)[C@H]1O[C@@H](Oc2ccc([N+](=O)[O-])cc2)[C@H](O)[C@@H](O)[C@@H]1O [para-nitrophenol glucuronide]
- detection of the enzyme in the same plasma samples by the reference method (β-glucuronidase [4]): not detected in any of the samples

Compound: CCC[C@@H]1C[C@H](CC)[C@H](C)[C@H](C)[C@H]1C
- Plasma response range (u.a.) (β-D-galactosidase; Ethanol-D2, Cocktail 1, 10^−3/10^−4 mol·L^−1, Splitless): 2000-16000 u.a.

Source: patent US20240361317A1, “PROBES BASED ON VOLATILE ORGANIC COMPOUNDS AND USES THEREOF FOR THE DIAGNOSIS AND PROGNOSIS OF PATHOLOGICAL CONDITIONS” (Centre National de la Recherche Scientifique, priority 2021, published 2024)
